From article PMC6691788, “Design and synthesis of phthalazine-based compounds as potent anticancer agents with potential antiangiogenic activity via VEGFR-2 inhibition” (Journal of Enzyme Inhibition and Medicinal Chemistry, 2019)
Entries after “also recorded” stand apart in the source; their conditions may differ. Like-named read-outs stand apart in the source and are kept apart here.

What was measured:
MCF-7 cells [1] = test: Cellular and nuclear morphology (light microscopy, Dapi staining); type: cell-based; details: MCF-7, 0.32 µM, 24 and 48 h
Method: To further examine the apoptosis inducing effect of 7b, the cellular as well as nuclear morphological changes for MCF-7 cells treated with 7b (0.32 µM) were studied following Dapi staining. The effect of 7b on cell morphology was initially analysed with light microscopy.
(§1) MCF7 cells were cultured on sterile cover slips (Harvard Apparatus, 22 mm2) in sterile six well plates at a density of 2×10^5 cells/well. Twenty-four hours after seeding, cells were exposed to GI50 concentration of compound 7b in fresh serum-free medium. At the end of the exposure, cells attached to cover slips were imaged with a light inverted microscope or washed with PBS and fixed with 3.7% paraformaldhyde for 10 min, permeabilized with 0.1% Triton X-100 in TBST containing 0.01% Tween 20 for 10 min, and blocked for 1 h with 5% goat serum in TBST. The fixed and permeabilized cells were incubated with cleaved caspase-3 rabbit mAb (Cell signaling technology, MA), at a dilution of 1:500, in blocking solution overnight at 4 °C, followed by secondary Cy3-goat anti-Rabbit antibody (Jackson Immuno Research, West Grove, PA) 1:1000 dilution, in the blocking solution for 1 hour, at room temperature. 4',6'-diamidino-2-phenylindole, dihydrochloride (DAPI) (Sigma– Aldrich, St. Louis, MO) was used as counter stain to stain the DNA. […]

SF-539 = test: NCI 60 cell panel SRB screen; type: cell-based, human; details: Homo sapiens, SF-539, 5 log dose
SK-MEL-2 = test: NCI 60 cell panel SRB screen; type: cell-based; details: Homo sapiens
MCF-7 cells [2] = test: Cell-cycle analysis by flow cytometry; type: cell-based; details: MCF-7, at GI50 concentration, 24 h and 48 h
Source text: The effect of compound (7b and 13c) on the normal cell-cycle progression was characterised using flow cytometric analysis of the DNA ploidy in MCF-7 cells using BD […] ^TM software. […] The observed increase in sub-G1 cell population may imply DNA fragmentation and apoptosis as a potential mechanism for 7b/13c-induced cancer cell death.
The cells then were collected by trypsinization, washed with phosphate buffered saline (PBS), and fixed in ice-cold absolute alcohol. Thereafter, cells were stained, using Cycletest^TM Plus DNA Reagent Kit (BD Biosciences, San Jose, CA), according to the manufacturer’s instructions. Cell cycle distribution was determined using a FACS Calibur flow cytometer (BD Biosciences, San Jose, CA).

full NCI 60 cell panel = test: NCI 60 cell panel SRB screen, whole panel; type: cell-based, human; details: NCI 5-log dose, full 60 cell panel, read-out: GI50 values, range over the tested cell lines
MCF-7 cells [3] = test: Annexin V-FITC/PI apoptosis detection; type: cell-based; details: MCF-7, at GI50, 24 h and 48 h
Source text: To further investigate the ability of compounds (7b, 13c and 16a) to induce apoptosis, an Annexin V (conjugated to FITC) apoptosis detection kit was employed. This assay detects phosphatidylserine (PS) expressed on the surface of apoptotic cells and fluoresces green after interacting with the labelled Annexin V. During early apoptosis, membrane asymmetry is lost, and PS translocates from the cytoplasmic side of the membrane to the external leaflet. Propidium iodide (PI), the counter stain used in this assay, has the ability to cross only compromised membranes to intercalate into the DNA. Therefore, PI is used to detect the late stages of apoptosis by the presence of red fluorescence.
Apoptosis was determined by staining cells with Annexin V–fluorescein isothiocyanate (FITC) and counterstaining with propidium iodide (PI) using the Annexin V–FITC/PI apoptosis detection kit (BD PharMingen, San Diego, CA, USA) according to the manufacturer's instructions. […] The cells then were collected by trypsinization and 0.5 × 10^6 cells were washed twice with phosphate-buffered saline (PBS) and stained with 5 μl Annexin V–FITC and 5 μl PI in 1× binding buffer (BD PharMingen) for 15 minutes at room temperature in the dark. Analyses were performed using FACS Calibur flow cytometer (BD Biosciences, San Jose, CA).

EKVX = test: NCI 60 cell panel SRB screen; type: cell-based, human; details: Homo sapiens, 5 log dose
A498 = test: NCI 60 cell panel SRB screen; type: cell-based; details: Homo sapiens
[4] = system: cleaved caspase-3 in MCF-7 cells; test: Cleaved caspase-3 immunostaining; type: cell-based; details: MCF-7, 0.32 µM, 24 h and 48 h
Method: Caspase-3 is a member of the cysteine-aspartic acid protease (caspase) family. Sequential activation of caspases is considered as one of the important keys in cellular apoptosis process. […] Cleaved caspase-3 further activates a cascade of caspases that induce cell death.
as §1

TK-10 = test: NCI 60 cell panel SRB screen; type: cell-based, human

SMILES: O=C(Nc1ccc(Cl)cc1)Nc1ccc(Oc2nncc3ccccc23)cc1 [Compound 7b, 1–(4-Chlorophenyl)-3–(4-(phthalazin-1-yloxy)phenyl)urea]
- cellular and nuclear morphology (MCF-7 cells [1]): deteriorated morphological changes including cell rounding, detachment and cellular fragmentation; also recorded: typical apoptotic characteristics; including condensation of chromatin (brightly stained cells), blubbing with the appearance of nuclear fragmentation
- GI50 (SF-539): 0.28 µM
- IC (TGI) (SF-539): 1.13 µM
- CC50 (SF-539; 48 h, read-out: LC50 (the source's name)): 3.81 µM
- GI50 (SK-MEL-2): 1.57 µM
- IC (TGI) (SK-MEL-2; read-out: TGI): 3.65 µM
- CC50 (SK-MEL-2; SK-MEL-2, 5 log dose, 48 h, read-out: LC50 (the source's name)): 8.5 µM
- effect on cell-cycle progression (MCF-7 cells [2]): induce cell cycle arrest at S phase boundary; also recorded: remarkable disruption in cell cycle profile and cell-cycle arrest at S-phase boundary with concurrent time-dependent increase in pre-G cell population
- GI50 (full NCI 60 cell panel; Homo sapiens, 60 cell): 0.15 to 8.41 µM
- GI50 (full NCI 60 cell panel): 0.15 to 2.81 µM
- induction of apoptosis (Annexin-V positive cells), in words (MCF-7 cells [3]): increased the percentage of Annexin-V positive cells indicating an early (lower right quadrant) or late (upper right quadrant) apoptosis in a time-dependent manner
- GI50 (EKVX): 1.61 µM
- IC (TGI) (EKVX): 4.5 µM
- LC50 (EKVX; 48 h): > 100 µM
- GI50 (A498; A498, 5 log dose): 1.5 µM
- IC (TGI) (A498; A498, 5 log dose): 3.06 µM
- CC50 (A498; A498, 5 log dose, 48 h, read-out: LC50 (the source's name)): 6.26 µM
- activity at 10 µM (A498; A498, single dose 10 μM, read-out: percent cell growth promotion): 24.5%
- cleaved caspase-3 protein expression [4]: concurrent increase in cleaved caspase-3 expression level; also recorded: time-dependent increase in cleaved caspase-3 protein expression; also recorded: increase the expression of cleaved caspase-3
- GI50 (TK-10; Homo sapiens, TK-10, 5 log dose): 2.12 µM
- CC50 (TK-10; Homo sapiens, TK-10, 5 log dose, 48 h, read-out: LC50 (the source's name)): 8.64 µM
- activity at 10 µM (TK-10; Homo sapiens, TK-10, single dose 10 μM, read-out: percent cell growth promotion): 27.5%
- TGI (TK-10; TK-10, 5 log dose): 4.28 µM
